Assays:
Format in all cases: cell-based
[1] = biological target: T1, human TLR7 (Homo sapiens, UniProt Q9NYK1); experiment: TLR7 inhibition reporter assay (HEK-Blue cells, SEAP reporter, gardiquimod stimulation); conditions: HEK-Blue cells overexpressing human TLR7, SEAP reporter, gardiquimod 7.5 μM
T1 construct: host or cells: HEK-Blue cells
T1 sequence (Q9NYK1 27-1049): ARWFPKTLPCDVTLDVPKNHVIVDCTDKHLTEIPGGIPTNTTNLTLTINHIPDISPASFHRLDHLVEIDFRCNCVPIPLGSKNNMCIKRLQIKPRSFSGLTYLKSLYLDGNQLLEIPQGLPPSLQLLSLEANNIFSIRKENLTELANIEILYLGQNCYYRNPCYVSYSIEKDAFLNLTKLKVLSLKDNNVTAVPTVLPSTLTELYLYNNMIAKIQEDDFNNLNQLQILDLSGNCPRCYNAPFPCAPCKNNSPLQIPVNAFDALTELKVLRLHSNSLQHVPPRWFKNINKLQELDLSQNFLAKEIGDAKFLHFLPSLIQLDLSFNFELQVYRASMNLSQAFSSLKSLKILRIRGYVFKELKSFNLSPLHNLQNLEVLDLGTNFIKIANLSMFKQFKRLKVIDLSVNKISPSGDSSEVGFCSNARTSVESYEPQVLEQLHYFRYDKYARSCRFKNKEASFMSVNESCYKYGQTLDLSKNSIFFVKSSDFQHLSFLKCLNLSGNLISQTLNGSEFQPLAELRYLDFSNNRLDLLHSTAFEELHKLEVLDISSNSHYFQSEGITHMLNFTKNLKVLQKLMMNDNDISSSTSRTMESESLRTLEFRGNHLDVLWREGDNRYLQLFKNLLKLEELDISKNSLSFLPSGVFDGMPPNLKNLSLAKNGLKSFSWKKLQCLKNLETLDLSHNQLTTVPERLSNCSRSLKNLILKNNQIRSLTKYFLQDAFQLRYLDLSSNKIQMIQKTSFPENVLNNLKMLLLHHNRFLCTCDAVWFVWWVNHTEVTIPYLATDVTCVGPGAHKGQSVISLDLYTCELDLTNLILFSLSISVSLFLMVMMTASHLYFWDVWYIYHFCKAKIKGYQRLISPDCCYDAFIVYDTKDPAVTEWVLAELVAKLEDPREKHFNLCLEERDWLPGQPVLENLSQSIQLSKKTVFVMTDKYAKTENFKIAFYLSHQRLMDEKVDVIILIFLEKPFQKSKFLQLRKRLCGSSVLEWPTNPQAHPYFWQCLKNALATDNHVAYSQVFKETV
Procedure, shortened: (§1)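 Percent inhibition of agonist-induced SEAP, set between agonist+DMSO wells and known-inhibitor wells, after 22 h at 37° C. Compounds (0.05 nM-50 μM final) were added 30 min at room temperature before ligand: gardiquimod 7.5 μM for TLR7, R848 15.9 μM for TLR8, ODN2006 5 nM for TLR9. Human receptors overexpressed in HEK-Blue reporter cells.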

[2] = biological target: T2, human TLR8 (Homo sapiens, UniProt Q9NR97); experiment: TLR8 inhibition reporter assay (HEK-Blue cells, SEAP reporter, R848 stimulation); conditions: HEK-Blue cells overexpressing human TLR8, SEAP reporter, R848 15.9 μM
T2 construct: host or cells: HEK-Blue cells
T2 sequence (Q9NR97 27-1041): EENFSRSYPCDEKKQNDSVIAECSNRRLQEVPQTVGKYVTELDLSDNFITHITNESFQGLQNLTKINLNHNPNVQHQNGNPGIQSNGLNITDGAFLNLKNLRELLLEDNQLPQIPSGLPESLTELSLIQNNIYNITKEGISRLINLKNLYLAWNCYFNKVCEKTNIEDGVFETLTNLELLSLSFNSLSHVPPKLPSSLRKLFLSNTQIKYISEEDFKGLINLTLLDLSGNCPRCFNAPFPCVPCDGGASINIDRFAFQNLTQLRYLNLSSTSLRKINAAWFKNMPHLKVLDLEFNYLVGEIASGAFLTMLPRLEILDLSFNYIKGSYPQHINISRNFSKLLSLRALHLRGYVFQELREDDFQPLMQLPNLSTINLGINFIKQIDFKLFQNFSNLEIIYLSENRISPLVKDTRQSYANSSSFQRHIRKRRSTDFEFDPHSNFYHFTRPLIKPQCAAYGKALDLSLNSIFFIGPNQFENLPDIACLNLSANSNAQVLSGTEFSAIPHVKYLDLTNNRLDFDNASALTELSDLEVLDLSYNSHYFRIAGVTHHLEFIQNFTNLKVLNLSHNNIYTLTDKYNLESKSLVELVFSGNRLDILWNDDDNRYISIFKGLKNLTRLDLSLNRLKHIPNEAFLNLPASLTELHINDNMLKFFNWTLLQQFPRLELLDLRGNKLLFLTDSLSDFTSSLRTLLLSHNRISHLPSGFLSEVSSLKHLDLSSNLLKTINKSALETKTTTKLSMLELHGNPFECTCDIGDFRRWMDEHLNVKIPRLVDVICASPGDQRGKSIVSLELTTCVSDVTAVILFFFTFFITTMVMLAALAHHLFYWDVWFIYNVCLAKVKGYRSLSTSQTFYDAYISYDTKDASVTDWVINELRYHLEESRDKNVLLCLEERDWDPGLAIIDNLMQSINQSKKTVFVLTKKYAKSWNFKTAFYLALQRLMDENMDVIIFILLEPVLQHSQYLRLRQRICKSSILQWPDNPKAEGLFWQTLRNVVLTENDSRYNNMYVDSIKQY
Procedure, shortened: as §1

[3] = biological target: T3, human TLR9 (Homo sapiens, UniProt Q9NR96); experiment: TLR9 inhibition reporter assay (HEK-Blue cells, SEAP reporter, ODN2006 stimulation); conditions: HEK-Blue cells overexpressing human TLR9, SEAP reporter, ODN2006 5 nM
T3 construct: host or cells: HEK-Blue cells
T3 sequence (Q9NR96 26-1032): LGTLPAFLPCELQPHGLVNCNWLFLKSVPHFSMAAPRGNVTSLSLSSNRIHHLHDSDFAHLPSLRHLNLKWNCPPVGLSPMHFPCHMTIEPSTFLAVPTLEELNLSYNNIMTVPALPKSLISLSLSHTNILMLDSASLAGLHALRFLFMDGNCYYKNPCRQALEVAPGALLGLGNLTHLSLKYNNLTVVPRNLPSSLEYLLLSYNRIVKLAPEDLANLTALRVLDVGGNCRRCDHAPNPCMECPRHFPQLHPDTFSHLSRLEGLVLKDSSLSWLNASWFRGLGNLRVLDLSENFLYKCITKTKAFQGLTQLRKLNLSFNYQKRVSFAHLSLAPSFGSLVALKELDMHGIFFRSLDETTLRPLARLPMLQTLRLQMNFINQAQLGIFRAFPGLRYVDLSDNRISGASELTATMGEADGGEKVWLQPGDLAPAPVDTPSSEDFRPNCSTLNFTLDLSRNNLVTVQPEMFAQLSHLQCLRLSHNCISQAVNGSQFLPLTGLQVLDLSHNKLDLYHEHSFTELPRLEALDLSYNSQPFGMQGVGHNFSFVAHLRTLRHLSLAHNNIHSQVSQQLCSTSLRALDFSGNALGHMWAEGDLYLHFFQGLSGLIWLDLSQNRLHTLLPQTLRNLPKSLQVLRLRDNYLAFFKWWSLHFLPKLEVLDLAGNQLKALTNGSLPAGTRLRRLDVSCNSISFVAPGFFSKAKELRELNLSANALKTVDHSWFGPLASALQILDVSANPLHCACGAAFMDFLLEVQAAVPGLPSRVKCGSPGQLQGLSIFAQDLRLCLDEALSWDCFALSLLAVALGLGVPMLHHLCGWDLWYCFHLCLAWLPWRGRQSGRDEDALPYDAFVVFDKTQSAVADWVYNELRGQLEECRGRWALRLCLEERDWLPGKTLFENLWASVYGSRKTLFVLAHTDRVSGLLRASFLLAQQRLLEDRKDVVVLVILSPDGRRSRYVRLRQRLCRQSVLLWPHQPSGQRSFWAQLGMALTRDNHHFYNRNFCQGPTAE
Procedure, shortened: as §1

| SMILES | IC50 [1] [nM] | IC50 [2] [nM] | IC50 [3] [nM] |
| --- | --- | --- | --- |
| Cc1cc(-c2[nH]nc(C3CCC(N4CCN(C)CC4)CC3)c2C(C)C)cn2ncnc12 (single isomer, unassigned) [Example 286] | 25.6 | 14.6 | > 50000 |
| Cc1cc(-c2[nH]nc(-c3ccc(C4CCN(C(C)C)CC4)cc3)c2C(C)C)cn2ncnc12 [Example 307, 6-(4-isopropyl-3-(4-(1-isopropylpiperidin-4-yl)phenyl)-1H-pyrazol-5-yl)-8-methyl-[1,2,4]triazolo[1,5-a]pyridine] | 118 | 9.33 | > 50000 |
| Cc1cc(-c2[nH]nc(C(=O)N[C@H]3CC[C@H](NCc4cncnc4)CC3)c2C(C)C)cn2ncnc12 [Example 113] | 1.09 | 27.1 | 7800 |
| COc1cc(-c2[nH]nc(-c3ccc(C4CCN(C5CCOCC5)CC4)cc3)c2C(C)C)cn2ncnc12 [Example 313] | 3.71 | 1.72 | > 50000 |
| Cc1cc(-c2[nH]nc(C(=O)N[C@H]3CC[C@@H](NC(C)C(C)(C)C)CC3)c2C(C)C)cn2ncnc12 (stereo partly drawn) [Example 150] | 0.57 | 0.39 | 2830 |
| COc1cc(-c2[nH]nc(C(=O)NC3CCN(C(C)C)CC3)c2C(C)C)cn2ncnc12 [Example 12] | 1.59 | 0.86 | 2150 |
| Cc1cc(-c2[nH]nc(C(=O)N3CCCN(C)CC3)c2C(C)C)cn2ncnc12 [Example 23] | 1.27 | 1.01 | 4770 |
| Cc1cc(-c2[nH]nc(-c3nc4ccc(NC(C)C)cc4s3)c2C(C)C)cn2ncnc12 [Example 258] | 36.5 | 9.16 | 29400 |
| Cc1cc(-c2[nH]nc(-c3ccc4c(c3)CNCC4)c2C(C)C)cn2ncnc12 [Example 231] | 6.32 | 1.19 | 49500 |
| Cc1cc(-c2[nH]nc(C(=O)N[C@H]3CC[C@@H](NCC4CCOCC4)CC3)c2C(C)C)cn2ncnc12 [Example 92] | 0.31 | 2.34 | 4110 |
| Cc1cc(-c2[nH]nc(-c3ccc(N(C)C)cc3)c2C(C)C)cn2ncnc12 [Example 243] | 16.4 | 2.1 | 29800 |
| Cc1cc(-c2[nH]nc(C(=O)NC3CCN(CC4CCOCC4)CC3)c2CC(F)(F)F)cn2ncnc12 [Example 204] | 1.5 | 0.63 | 17800 |
| Cc1cc(-c2[nH]nc(C(=O)NCC3CN(C(C)C)CCO3)c2C(C)C)cn2ncnc12 (stereo not drawn) [Example 141] | 3.03 | 13.5 | 12800 |
| Cc1cc(-c2[nH]nc(C(=O)NC3CCN(C(C)C(C)C)CC3)c2C(C)C)cn2ncnc12 (stereo not drawn) [Example 125] | 5.8 | 25.9 | 5400 |
| Cc1cc(-c2[nH]nc(C(=O)NC3CCOCC3)c2C(C)C)cn2ncnc12 [Example 28] | 39 | 265 | 645 |
| Cc1cc(-c2[nH]nc(C(=O)NC3CCN(C(C)C)CC3)c2C(C)C)cn2ccnc12 [Example 37] | 12.1 | 27 | 27900 |
| Cc1cc(-c2[nH]nc(C(=O)N[C@H]3CC[C@@H](NCc4cncnc4)CC3)c2C(C)C)cn2ncnc12 [Example 102] | 0.37 | 14 | 3890 |
| Cc1cc(-c2[nH]nc(-c3ccc4c(c3)CCN(C3COC3)C4)c2C(C)C)cn2ncnc12 [Example 247] | 5.87 | 4.42 | 42500 |
| Cc1cc(-c2[nH]nc(-c3ccc4c(c3)CCN(C(C)C)C4)c2C(C)C)cn2ncnc12 [Example 246] | 60.8 | 154 | > 50000 |
| Cc1c(-c2[nH]nc(C(=O)NC3CCN(C(C)C)CC3)c2C(C)C)cn2ncnc2c1C [Example 33] | 3.86 | 1.52 | > 50000 |
| Cc1cc(-c2[nH]nc(C(=O)NCCN3CCOCC3)c2C(C)C)cn2ncnc12 [Example 3] | 1.84 | 3.05 | 18500 |
| Cc1cc(-c2[nH]nc(C3CCN(C(C)C)CC3)c2C(C)C)cn2ncnc12 [compound 207] | 2.92 | 0.31 | 20700 |
| Cc1cc(-c2[nH]nc(C(=O)N[C@H]3CC[C@@H](NCC4CCCC4)CC3)c2C(C)C)cn2ncnc12 [Example 94] | 1.94 | 3.14 | 40700 |
| Cc1cc(-c2[nH]nc(C(=O)N[C@H]3CCCN(CC4=NC(C)N=N4)C3)c2C(C)C)cn2ncnc12 (stereo partly drawn) [Example 165] | 1.61 | 14.4 | 22800 |
| Cc1cc(-c2[nH]nc(C(=O)NCC3CN(C4COC4)CCO3)c2C(C)C)cn2ncnc12 (stereo not drawn) [Example 142] | 2.08 | 2.7 | 6970 |
| CC(C)c1c(C(=O)NC2CCN(C)CC2)n[nH]c1-c1cn(C)c2ncccc12 [Example 41] | 1.19 | 2.66 | 8430 |
